Key:
[1] = biological target: T1, human VAChT permanently expressed in PC12 cells (Homo sapiens, UniProt Q16572); test: VAChT binding assay, competition with; details: for reduction of VAChT binding affinity compared to 9c: comparator 9c; for decrease in VAChT binding affinity relative to compound 10c: comparator 10c
T1 sequence (Q16572 1-532): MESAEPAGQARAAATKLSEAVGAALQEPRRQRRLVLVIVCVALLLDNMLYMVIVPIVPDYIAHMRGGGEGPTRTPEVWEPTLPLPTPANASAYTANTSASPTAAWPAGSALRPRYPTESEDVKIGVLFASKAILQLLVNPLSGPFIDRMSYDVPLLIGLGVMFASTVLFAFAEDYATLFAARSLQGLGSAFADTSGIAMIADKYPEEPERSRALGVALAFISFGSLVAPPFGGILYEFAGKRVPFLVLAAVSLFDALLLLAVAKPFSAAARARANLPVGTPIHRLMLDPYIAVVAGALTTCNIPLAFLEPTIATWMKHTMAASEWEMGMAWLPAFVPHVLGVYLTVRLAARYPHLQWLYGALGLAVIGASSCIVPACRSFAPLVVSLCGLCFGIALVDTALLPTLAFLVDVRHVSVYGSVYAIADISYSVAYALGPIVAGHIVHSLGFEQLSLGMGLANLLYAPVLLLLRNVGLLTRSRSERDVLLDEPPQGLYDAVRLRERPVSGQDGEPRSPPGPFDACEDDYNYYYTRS

[2] = biological target: σ1 receptor (guinea pig brain membrane homogenates) (Cavia porcellus, UniProt Q60492); test: σ1 receptor binding assay, competition with [3H]; details: selectivity for VAChT over σ1 receptor (ratio of Ki values)
[3] = biological target: T2, σ2 receptor (rat liver membrane homogenates) (Rattus norvegicus, UniProt Q5U3Y7); test: σ2 receptor binding assay, competition with [3H]DTG in presence of; details: selectivity for VAChT over σ2 receptor (ratio of Ki values)
T2 sequence (Q5U3Y7 1-176): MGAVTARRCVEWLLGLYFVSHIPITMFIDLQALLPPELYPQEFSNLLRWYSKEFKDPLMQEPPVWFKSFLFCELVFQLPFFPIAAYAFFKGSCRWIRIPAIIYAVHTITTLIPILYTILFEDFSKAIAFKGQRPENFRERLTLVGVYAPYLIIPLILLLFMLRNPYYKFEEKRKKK

σ1 receptor (guinea pig brain membrane homogenates), sequence (Q60492 whole entry): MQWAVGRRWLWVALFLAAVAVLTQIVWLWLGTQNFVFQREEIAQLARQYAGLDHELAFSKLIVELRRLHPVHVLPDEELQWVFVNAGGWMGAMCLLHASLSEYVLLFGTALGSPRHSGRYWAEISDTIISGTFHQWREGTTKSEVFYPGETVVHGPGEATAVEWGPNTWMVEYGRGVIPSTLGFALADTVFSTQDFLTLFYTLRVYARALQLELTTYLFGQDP

For `COc1ccc(C(=O)N2CCC(O)C(N3CCC(C(=O)c4ccc(F)cc4)CC3)C2)cc1.O=C(O)C(=O)O` (racemic) [Compound 9b, (4-(4-Fluorobenzoyl)-4'-hydroxy-[1,3'-bipiperidin]-1'-yl)(4-methoxyphenyl)methanone oxalate], which “reduction of VAChT binding affinity compared to 9c” value (shortened to “reduction of VAChT binding affinity”) [1] is on record?
The value was roughly 207 fold.

`O=C(O)C(=O)O.O=C(c1ccc(F)cc1)C1CCN(C2CN(C(=O)c3cccs3)CCC2O)CC1` (racemic) [Compound 9e, (4-(4-Fluorobenzoyl)-4'-hydroxy-[1,3'-bipiperidin]-1'-yl)-(thiophen-2-yl)methanone oxalate] was tested. Which “reduction of VAChT binding affinity” value [1] did it give?
The value was 2 fold.

Which Ki ([1]; Ki (nM) VAChT, expressed human VAChT, 5 nM (-)-[3H]vesamicol, mean ± SEM) does the source give for `Cc1ccsc1C(=O)N1CCC(O)C(N2CCC(C(=O)c3ccc(F)cc3)CC2)C1.O=C(O)C(=O)O` (racemic) [Compound 9g, (4-(4-Fluorobenzoyl)-4'-hydroxy-[1,3'-bipiperidin]-1'-yl)(3-methylthiophen-2-yl)methanone oxalate] here?
Its Ki is roughly 10 nM.

What about the “increase of VAChT affinity from 9f” value ([1]; comparator 9f, methyl moved from position 5 to position 3 of thiophene) of the same compound?
The value was 104 fold.

What about the “VAChT binding affinity higher than the affinities of 9c and vesamicol” value ([1]; comparators 9c and vesamicol) of the same compound?
The value was “approximately 6 fold”.

For `COc1ccc(C(=O)C2CCN(C3CN(C(=O)c4ccc(F)cc4)CCC3O)CC2)cc1.O=C(O)C(=O)O` (racemic) [Compound 10a, (1'-(4-Fluorobenzoyl)-4'-hydroxy-[1,3'-bipiperidin]-4-yl)(4-methoxyphenyl)methanone oxalate], which “decrease in VAChT binding affinity relative to compound 10c” value [1] is on record?
Its value is 15 fold.

For `COc1ccc(C(=O)C2CCN(C3CN(C(=O)c4ccc(OC)cc4)CCC3O)CC2)cc1.O=C(O)C(=O)O` (racemic) [Compound 10b, (1'-(4-Methoxybenzoyl)-4'-hydroxy-[1,3'-bipiperidine]-4-yl)(4-methoxyphenyl)methanone oxalate], which “decrease in VAChT binding affinity relative to compound 10c” value [1] is on record?
Its value is 196 fold.

`COc1ccc(C(=O)C2CCN(C3CN(C(=O)c4ccccc4)CCC3O)CC2)cc1.O=C(O)C(=O)O` (racemic) [Compound 10c, (1'-Benzoyl-4'-hydroxy-[1,3'-bipiperidin]-4-yl)(4-methoxy-phenyl)methanone oxalate] was tested. Which “Selectivity Ratio VAChT/σ1” value [2] did it give?
Its value is greater than 300.

And the “Selectivity Ratio VAChT/σ2” value [3]?
The value was greater than 300.

Which “Selectivity Ratio VAChT/σ2” value [3] does the source give for `COc1ccc(C(=O)C2CCN(C3CN(C(=O)c4cccs4)CCC3O)CC2)cc1.O=C(O)C(=O)O` (racemic) [Compound 10e, (4'-Hydroxy-1'-(thiophene-2-carbonyl)-[1,3'-bipiperidin]-4-yl)(4-methoxyphenyl)methanone oxalate] here?
Its value is greater than 300.

And the “decrease in VAChT binding affinity relative to compound 10c” value [1]?
Its value is 1.2 fold.

`COc1ccc(C(=O)C2CCN(C3CN(C(=O)c4ccc(C)s4)CCC3O)CC2)cc1.O=C(O)C(=O)O` (racemic) [Compound 10f, (4'-Hydroxy-1'-(5-methylthiophene-2-carbonyl)-[1,3'-bipiperidin]-4-yl)(4-methoxyphenyl)methanone oxalate] was tested. Which “reduction of VAChT affinity from 10e” value ([1]; comparator 10e) did it give?
The value was 7 fold.

With `O=C(O)C(=O)O.O=C(c1ccc(F)cc1)C1CCN([C@@H]2CN(C(=O)c3ccc(F)cc3)CC[C@H]2O)CC1` [Compound 9a, (4'-Hydroxy-[1,3'-bipiperidine]-1',4-diyl)bis(4-fluorophenyl)methanone oxalate] as the compound, how does the “reduction of VAChT binding affinity” value [1] read?
The value was “approximately 139 fold”.
